From publication PMC9403976, “Elucidating the path to Plasmodium prolyl-tRNA synthetase inhibitors that overcome halofuginone resistance” (Nature Communications, 2022)
Several values for one entry are separate records, joined by “and”; a condition that tells them apart may be missing. Identical values can stand only once. Like-named read-outs stand apart in the source and are kept apart here.

What was measured:
[1] = molecular target: T1, PfcProRS (Plasmodium falciparum, UniProt Q8I5R7); assay type: binding; conditions: for dose-response signal (normalized), SI Fig 8: single replicates; for Normalized response, dose-response replicates (SI Fig 14): replicates 1-3
T1 construct: made in house; host or cells: E. coli SoluBL-21

[2] = molecular target: HsProRS (Homo sapiens, UniProt P07814); experiment: TR-FRET ligand displacement assay with tracer MAT379 (CoraFluor-1-Halo and anti-His6 antibody formats); assay type: binding; design: made in house; host or cells: E. coli SoluBL-21; conditions: for TR-FRET dose-response, normalized signal (SI Fig 11): individual replicates; for HsProRS % signal at 10 μM: no added proline/ATP (-)
[3] = test system: P. falciparum Dd2-2D4; experiment: P. falciparum asexual blood stage (ABS) growth assay, SYBR Green, 72 h, wild-type parasites; assay type: cell-based, Plasmodium falciparum; conditions: for EC50: Plasmodium falciparum, DD2, SI Fig 16b, values on -log scale, read-out: ABS - Dd2-2D4 (converted)
[4] = read-out: HsProRS IC50 + 100 μM proline, + 100 μM proline

T1 sequence (Q8I5R7 249-746): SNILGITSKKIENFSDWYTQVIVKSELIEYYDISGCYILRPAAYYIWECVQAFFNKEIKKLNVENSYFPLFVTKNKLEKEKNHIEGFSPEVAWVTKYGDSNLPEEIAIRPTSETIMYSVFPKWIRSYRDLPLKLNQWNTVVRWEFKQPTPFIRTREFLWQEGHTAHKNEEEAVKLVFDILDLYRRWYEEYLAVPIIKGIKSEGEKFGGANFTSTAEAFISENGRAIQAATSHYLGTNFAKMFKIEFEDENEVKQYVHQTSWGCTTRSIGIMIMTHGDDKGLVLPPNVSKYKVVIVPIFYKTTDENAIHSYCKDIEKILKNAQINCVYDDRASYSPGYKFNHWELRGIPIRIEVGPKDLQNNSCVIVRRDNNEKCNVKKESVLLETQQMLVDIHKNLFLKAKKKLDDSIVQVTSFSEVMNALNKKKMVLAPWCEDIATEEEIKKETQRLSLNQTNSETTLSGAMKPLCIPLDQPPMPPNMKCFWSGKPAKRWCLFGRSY
Sequence of HsProRS (P07814 996-1512): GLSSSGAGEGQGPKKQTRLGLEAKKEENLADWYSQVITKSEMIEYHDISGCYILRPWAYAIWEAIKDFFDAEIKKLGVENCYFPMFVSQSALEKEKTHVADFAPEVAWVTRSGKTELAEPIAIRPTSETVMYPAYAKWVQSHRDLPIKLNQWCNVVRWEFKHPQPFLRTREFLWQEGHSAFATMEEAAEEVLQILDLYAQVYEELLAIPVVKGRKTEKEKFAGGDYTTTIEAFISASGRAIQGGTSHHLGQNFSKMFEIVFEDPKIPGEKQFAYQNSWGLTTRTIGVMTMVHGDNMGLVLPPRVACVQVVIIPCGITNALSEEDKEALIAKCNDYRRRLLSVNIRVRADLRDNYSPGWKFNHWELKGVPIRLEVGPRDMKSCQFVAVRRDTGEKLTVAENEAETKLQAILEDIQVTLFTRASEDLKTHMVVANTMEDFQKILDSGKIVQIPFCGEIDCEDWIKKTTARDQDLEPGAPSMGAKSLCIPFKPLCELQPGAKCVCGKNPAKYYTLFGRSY

For `O=C(O)CCCC(=O)Nc1nccnc1C(=O)NC1Cc2ccccc2C1` [compound 22], the “dose-response signal (normalized), SI Fig 8” value ([1]; Log[inhibitor] (M) -5.000) was 9.06E-01 and 9.64E-01 and 8.26E-01, the “dose-response signal (normalized), SI Fig 8” value ([1]; Log[inhibitor] (M) -5.301) was 1.01E+00 (2×) and 9.72E-01 and the “dose-response signal (normalized), SI Fig 8” value ([1]; Log[inhibitor] (M) -5.601) was 9.26E-01 and 1.02E+00 and 9.22E-01. The “dose-response signal (normalized), SI Fig 8” value ([1]; Log[inhibitor] (M) -5.904) was 9.72E-01 and 1.05E+00 and 1.09E+00, the “dose-response signal (normalized), SI Fig 8” value ([1]; Log[inhibitor] (M) -6.208) was 1.07E+00 (2×) and 9.87E-01 and the “dose-response signal (normalized), SI Fig 8” value ([1]; Log[inhibitor] (M) -6.509) was 1.07E+00 and 1.14E+00 and 1.02E+00. For the same compound, the “dose-response signal (normalized), SI Fig 8” value ([1]; Log[inhibitor] (M) -6.796) was 9.89E-01 and 1.07E+00 and 9.33E-01, the “dose-response signal (normalized), SI Fig 8” value ([1]; Log[inhibitor] (M) -7.108) was 1.06E+00 and 1.00E+00 and 1.02E+00 and the “dose-response signal (normalized), SI Fig 8” value ([1]; Log[inhibitor] (M) -7.409) was 9.62E-01 and 1.08E+00 and 9.97E-01. For the same compound, the “dose-response signal (normalized), SI Fig 8” value ([1]; Log[inhibitor] (M) -7.710) was 1.02E+00 and 9.90E-01 and 1.13E+00, the “dose-response signal (normalized), SI Fig 8” value ([1]; Log[inhibitor] (M) -8.000) was 1.05E+00 (2×) and 1.10E+00 and the “dose-response signal (normalized), SI Fig 8” value ([1]; Log[inhibitor] (M) -8.301) was 1.05E+00 and 1.11E+00 and 1.20E+00. The “dose-response signal (normalized), SI Fig 8” value ([1]; Log[inhibitor] (M) -8.602) was 9.67E-01 and 1.09E+00 and 1.08E+00, the “dose-response signal (normalized), SI Fig 8” value ([1]; Log[inhibitor] (M) -9.000) was 9.27E-01 and 1.05E+00 and 1.07E+00 and the “dose-response signal (normalized), SI Fig 8” value ([1]; Log[inhibitor] (M) -9.301) was 1.08E+00 and 1.15E+00 and 9.88E-01. The IC50 [2] was greater than 10 µM, the “HsProRS % signal at 10 μM, + 100 μM proline” value ([2]; + 100 μM proline) was 79.2% and the “normalized TR-FRET ligand displacement signal, dose-response replicates (SI Fig 6)” value ([2]; Log[inhibitor] (M) -5.000) was 6.88E-01 and 7.76E-01 and 7.44E-01. For the same compound, the “TR-FRET dose-response, normalized signal (SI Fig 11)” value ([2]; Log[inhibitor] (M) -5.000) was 7.43E-01 and 6.59E-01 and 7.38E-01, the “normalized TR-FRET ligand displacement signal, dose-response replicates (SI Fig 6)” value ([2]; Log[inhibitor] (M) -5.301) was 8.82E-01 (2×) and 7.80E-01 and the “TR-FRET dose-response, normalized signal (SI Fig 11)” value ([2]; Log[inhibitor] (M) -5.301) was 8.33E-01 and 8.41E-01 and 8.52E-01. For the same compound, the “normalized TR-FRET ligand displacement signal, dose-response replicates (SI Fig 6)” value ([2]; Log[inhibitor] (M) -5.601) was 8.80E-01 and 9.45E-01 and 8.65E-01, the “TR-FRET dose-response, normalized signal (SI Fig 11)” value ([2]; Log[inhibitor] (M) -5.601) was 9.39E-01 and 8.79E-01 and 9.13E-01 and the “normalized TR-FRET ligand displacement signal, dose-response replicates (SI Fig 6)” value ([2]; Log[inhibitor] (M) -5.904) was 1.02E+00 and 1.06E+00 and 9.13E-01. For the same compound, the “TR-FRET dose-response, normalized signal (SI Fig 11)” value ([2]; Log[inhibitor] (M) -5.904) was 9.47E-01 and 9.57E-01 and 9.01E-01, the “normalized TR-FRET ligand displacement signal, dose-response replicates (SI Fig 6)” value ([2]; Log[inhibitor] (M) -6.208) was 1.04E+00 and 1.02E+00 and 9.07E-01 and the “TR-FRET dose-response, normalized signal (SI Fig 11)” value ([2]; Log[inhibitor] (M) -6.208) was 1.02E+00 and 9.48E-01 and 9.47E-01. For the same compound, the “normalized TR-FRET ligand displacement signal, dose-response replicates (SI Fig 6)” value ([2]; Log[inhibitor] (M) -6.509) was 8.91E-01 and 9.55E-01 and 1.01E+00, the “TR-FRET dose-response, normalized signal (SI Fig 11)” value ([2]; Log[inhibitor] (M) -6.509) was 9.53E-01 and 9.49E-01 and 9.29E-01 and the “normalized TR-FRET ligand displacement signal, dose-response replicates (SI Fig 6)” value ([2]; Log[inhibitor] (M) -6.796) was 1.03E+00 and 1.02E+00 and 9.73E-01. For the same compound, the “TR-FRET dose-response, normalized signal (SI Fig 11)” value ([2]; Log[inhibitor] (M) -6.796) was 9.39E-01 and 9.96E-01 and 9.21E-01, the “normalized TR-FRET ligand displacement signal, dose-response replicates (SI Fig 6)” value ([2]; Log[inhibitor] (M) -7.108) was 1.09E+00 and 9.83E-01 and 1.08E+00 and the “TR-FRET dose-response, normalized signal (SI Fig 11)” value ([2]; Log[inhibitor] (M) -7.108) was 9.39E-01 and 9.94E-01 and 9.05E-01. The “normalized TR-FRET ligand displacement signal, dose-response replicates (SI Fig 6)” value ([2]; Log[inhibitor] (M) -7.409) was 9.62E-01 and 1.05E+00 and 9.54E-01, the “TR-FRET dose-response, normalized signal (SI Fig 11)” value ([2]; Log[inhibitor] (M) -7.409) was 9.56E-01 and 9.55E-01 and 9.01E-01 and the “normalized TR-FRET ligand displacement signal, dose-response replicates (SI Fig 6)” value ([2]; Log[inhibitor] (M) -7.710) was 9.45E-01 and 1.01E+00 and 9.79E-01. For the same compound, the “TR-FRET dose-response, normalized signal (SI Fig 11)” value ([2]; Log[inhibitor] (M) -7.710) was 9.86E-01 and 9.70E-01 and 9.64E-01, the “normalized TR-FRET ligand displacement signal, dose-response replicates (SI Fig 6)” value ([2]; Log[inhibitor] (M) -8.000) was 1.07E+00 and 1.06E+00 and 9.51E-01 and the “TR-FRET dose-response, normalized signal (SI Fig 11)” value ([2]; Log[inhibitor] (M) -8.000) was 9.84E-01 and 9.81E-01 and 9.67E-01. For the same compound, the “normalized TR-FRET ligand displacement signal, dose-response replicates (SI Fig 6)” value ([2]; Log[inhibitor] (M) -8.301) was 9.49E-01 and 8.91E-01 and 8.92E-01, the “TR-FRET dose-response, normalized signal (SI Fig 11)” value ([2]; Log[inhibitor] (M) -8.301) was 9.40E-01 and 1.01E+00 and 9.29E-01 and the “normalized TR-FRET ligand displacement signal, dose-response replicates (SI Fig 6)” value ([2]; Log[inhibitor] (M) -8.602) was 9.06E-01 and 1.02E+00 and 1.07E+00. The “TR-FRET dose-response, normalized signal (SI Fig 11)” value ([2]; Log[inhibitor] (M) -8.602) was 9.70E-01 and 9.81E-01 and 9.77E-01, the “normalized TR-FRET ligand displacement signal, dose-response replicates (SI Fig 6)” value ([2]; Log[inhibitor] (M) -9.000) was 1.02E+00 and 8.38E-01 and 9.71E-01 and the “TR-FRET dose-response, normalized signal (SI Fig 11)” value ([2]; Log[inhibitor] (M) -9.000) was 1.01E+00 and 9.79E-01 and 9.47E-01. For the same compound, the “normalized TR-FRET ligand displacement signal, dose-response replicates (SI Fig 6)” value ([2]; Log[inhibitor] (M) -9.301) was 9.40E-01 and 9.94E-01 and 9.82E-01, the “TR-FRET dose-response, normalized signal (SI Fig 11)” value ([2]; Log[inhibitor] (M) -9.301) was 9.53E-01 and 9.63E-01 and 8.99E-01 and the “HsProRS % signal at 10 μM” value [2] was 71.3%. The IC50 [2, 4] was greater than 10 µM, the “dose-response value per replicate (SI Fig 2g)” value ([3]; Log[inhibitor] (M) -7.408) was 111 and the EC50 [3] was 12.3 µM.

In the case of `O=C(NC1CCCCC1)c1nccnc1NC(=O)C1Cc2ccccc2C1` [compound 49], the “Normalized response, dose-response replicates (SI Fig 14)” value (shortened to “Normalized response”) ([1]; Log[inhibitor] (M) -5.000) is reported as 8.45E-01 and 8.81E-01 and 7.61E-01, the “Normalized response” value ([1]; Log[inhibitor] (M) -5.301) is reported as 9.54E-01 and 9.61E-01 and 9.77E-01 and the “Normalized response” value ([1]; Log[inhibitor] (M) -5.601) is reported as 1.16E+00 and 9.36E-01 and 1.07E+00. The “Normalized response” value ([1]; Log[inhibitor] (M) -5.904) was 8.95E-01 and 1.06E+00 and 1.02E+00, the “Normalized response” value ([1]; Log[inhibitor] (M) -6.208) was 1.16E+00 and 9.70E-01 and 1.06E+00 and the “Normalized response” value ([1]; Log[inhibitor] (M) -6.509) was 1.04E+00 and 1.06E+00 and 1.11E+00. For the same compound, the “Normalized response” value ([1]; Log[inhibitor] (M) -6.796) was 1.05E+00 and 9.78E-01 and 1.11E+00, the “Normalized response” value ([1]; Log[inhibitor] (M) -7.108) was 1.04E+00 and 1.10E+00 and 1.05E+00 and the “Normalized response” value ([1]; Log[inhibitor] (M) -7.409) was 1.08E+00 and 9.76E-01 and 1.10E+00. For the same compound, the “Normalized response” value ([1]; Log[inhibitor] (M) -7.710) was 9.25E-01 and 1.04E+00 and 1.10E+00, the “Normalized response” value ([1]; Log[inhibitor] (M) -8.000) was 1.07E+00 and 1.04E+00 and 1.10E+00 and the “Normalized response” value ([1]; Log[inhibitor] (M) -8.301) was 9.50E-01 and 1.14E+00 and 9.21E-01. For the same compound, the “Normalized response” value ([1]; Log[inhibitor] (M) -8.602) was 9.83E-01 and 1.05E+00 and 9.81E-01, the “Normalized response” value ([1]; Log[inhibitor] (M) -9.000) was 1.05E+00 and 1.09E+00 and 1.08E+00 and the “Normalized response” value ([1]; Log[inhibitor] (M) -9.301) was 1.08E+00 and 1.02E+00 and 9.82E-01. The IC50 [2] was greater than 10 µM, the “HsProRS % signal at 10 μM, + 100 μM proline” value ([2]; + 100 μM proline) was 103% and the “HsProRS % signal at 10 μM” value [2] was 90.3%. It also gave an IC50 [2, 4] greater than 10 µM and an EC50 [3] of 6.81 µM.
